Patent US11253509B2, “Methods of treatment for cystic fibrosis” (Vertex Pharmaceuticals Incorporated, priority 2017, dated 2022)
Entries after “also recorded” stand apart in the source; their conditions may differ.

Tests used:
CFTR = target: T1, CFTR (Homo sapiens, UniProt P13569, DEL508-508); test: CFTR chloride transport in human bronchial epithelial (HBE) cells in vitro (Example 7); format: cell-based
T1 construct: In human bronchial epithelial (HBE) cells studied in vitro; endogenous in cells; host or cells: human bronchial epithelial (HBE) cells

F508del-CFTR [1] = target: T2, F508del-CFTR (Homo sapiens, UniProt P13569, DEL508-508); test: Ussing chamber assay, chloride transport in F508del/F508del-HBE cells; format: cell-based; set-up: CF-HBE cells were isolated from patients homozygous for F508del (F508del/F508del-HBE); endogenous in cells; host or cells: primary F508del/F508del-HBE cells from bronchial tissue of CF patients
Description: Ussing chamber experiments were performed on polarized airway epithelial cells expressing F508del to further characterize the F508del modulators identified in the optical assay above. Non-CF and CF airway epithelia were isolated from bronchial tissue, cultured using methods well known in the art, and plated onto Costar® Snapwell™ filters that were precoated with NIH3T3-conditioned media. After four days the apical media was removed and the cells were grown at an air liquid interface for >14 days prior to use. […] CF-HBE cells were isolated from patients homozygous for F508del (F508del/F508del-HBE) or heterozygous for F508del and a mutation associated with minimal CF transmembrane conductance regulator (CFTR) function (MF) that is not expected to respond to Compound II, Compound III, Compound III-d, and the combination of Compound II and III, or Compound II and III-d (F508del/MF-HBE).
HBE cells grown on Costar® Snapwell™ cell culture inserts were mounted in an Ussing chamber (Physiologic Instruments, Inc., San Diego, Calif.), and the transepithelial resistance and short-circuit current in the presence of a basolateral to apical Cl^− gradient (ISC) were measured using a voltage-clamp system (Department of Bioengineering, University of Iowa, Iowa). Briefly, HBE cells were examined under voltage-clamp recording conditions (Vhold=0 mV) at 37° C. The basolateral solution contained (in mM) 145 NaCl, 0.83 K2HPO4, 3.3 KH2PO4, 1.2 MgCl2, 1.2 CaCl2, 10 Glucose, 10 HEPES (pH adjusted to 7.35 with NaOH) and the apical solution contained (in mM) 145 NaGluconate, 1.2 MgCl2, 1.2 CaCl2, 10 glucose, 10 HEPES (pH adjusted to 7.35 with NaOH).
Ussing Chamber Assay Procedure
A basolateral to apical membrane Cl^− concentration gradient was set up as follows. Normal Ringer's solution was used on the basolateral membrane, whereas apical NaCl was replaced by equimolar sodium gluconate (titrated to pH 7.4 with NaOH) to give a large Cl^− concentration gradient across the epithelium. […] Chloride current was measured to assess the increase in functional CFTR in the cell membrane. […]

[2] = Compound I monotherapy safety in healthy subjects; format: in vivo, human; conditions: multiple doses up to 400 mg qd for 10 days
[3] = Preclinical reproductive toxicology studies; format: in vivo
F508del-CFTR [4] = target: T2, F508del-CFTR; test: Membrane potential optical assay (F508del-CFTR correction); format: cell-based; set-up: expressed in transfected cells; conditions: NIH3T3 mouse fibroblasts stably expressing F508del, 18-24 hours
Excerpt: Membrane Potential Optical Methods for Assaying Properties of F508del-CFTR Modulators
An optical assay was employed to measure changes in membrane potential to determine the CFTR modulator properties of compounds. The assay utilized fluorescent voltage sensing dyes to measure changes in membrane potential using a fluorescent plate reader (e.g., FLIPR III, Molecular Devices, Inc.) as a readout for increase in functional F508del in NIH 3T3 cells. The driving force for the response was the creation of a chloride ion gradient in conjunction with channel activation and concurrent with compound treatment by a single liquid addition step after the cells had previously been loaded with a voltage sensing dye.
NIH3T3 mouse fibroblasts stably expressing F508del were used for optical measurements of membrane potential. The cells were maintained at 37° C. in 5% CO2 and 90% humidity in Dulbecco's modified Eagle's medium supplemented with 2 mM glutamine, 10% fetal bovine serum, 1×NEAA, β-ME, 1× pen/strep, and 25 mM HEPES in 175 cm^2 culture flasks. […] The cells were then activated and treated with Compound I. After 18-24 hours, fluorescence from the voltage sensing dye in the cells was measured to assess changes in the membrane potential as a read out for increase in functional F508del CFTR in the NIH3T3 cells.

F508del-CFTR [5] = target: T2, F508del-CFTR; test: F508del-CFTR processing and trafficking (170 to 180 kDa band) in F508del/F508del-HBE cells; format: cell-based; set-up: CF-HBE cells were isolated from patients homozygous for F508del (F508del/F508del-HBE); endogenous in cells; host or cells: primary F508del/F508del-HBE cells from bronchial tissue of CF patients
Excerpt: The CFTR protein delivered to the cell surface by Compound I alone or in combination with Compound II (Compound I/Compound II) was potentiated by Compound III.

T2 sequence (P13569 with tags, fused parts or gaps DEL508-508): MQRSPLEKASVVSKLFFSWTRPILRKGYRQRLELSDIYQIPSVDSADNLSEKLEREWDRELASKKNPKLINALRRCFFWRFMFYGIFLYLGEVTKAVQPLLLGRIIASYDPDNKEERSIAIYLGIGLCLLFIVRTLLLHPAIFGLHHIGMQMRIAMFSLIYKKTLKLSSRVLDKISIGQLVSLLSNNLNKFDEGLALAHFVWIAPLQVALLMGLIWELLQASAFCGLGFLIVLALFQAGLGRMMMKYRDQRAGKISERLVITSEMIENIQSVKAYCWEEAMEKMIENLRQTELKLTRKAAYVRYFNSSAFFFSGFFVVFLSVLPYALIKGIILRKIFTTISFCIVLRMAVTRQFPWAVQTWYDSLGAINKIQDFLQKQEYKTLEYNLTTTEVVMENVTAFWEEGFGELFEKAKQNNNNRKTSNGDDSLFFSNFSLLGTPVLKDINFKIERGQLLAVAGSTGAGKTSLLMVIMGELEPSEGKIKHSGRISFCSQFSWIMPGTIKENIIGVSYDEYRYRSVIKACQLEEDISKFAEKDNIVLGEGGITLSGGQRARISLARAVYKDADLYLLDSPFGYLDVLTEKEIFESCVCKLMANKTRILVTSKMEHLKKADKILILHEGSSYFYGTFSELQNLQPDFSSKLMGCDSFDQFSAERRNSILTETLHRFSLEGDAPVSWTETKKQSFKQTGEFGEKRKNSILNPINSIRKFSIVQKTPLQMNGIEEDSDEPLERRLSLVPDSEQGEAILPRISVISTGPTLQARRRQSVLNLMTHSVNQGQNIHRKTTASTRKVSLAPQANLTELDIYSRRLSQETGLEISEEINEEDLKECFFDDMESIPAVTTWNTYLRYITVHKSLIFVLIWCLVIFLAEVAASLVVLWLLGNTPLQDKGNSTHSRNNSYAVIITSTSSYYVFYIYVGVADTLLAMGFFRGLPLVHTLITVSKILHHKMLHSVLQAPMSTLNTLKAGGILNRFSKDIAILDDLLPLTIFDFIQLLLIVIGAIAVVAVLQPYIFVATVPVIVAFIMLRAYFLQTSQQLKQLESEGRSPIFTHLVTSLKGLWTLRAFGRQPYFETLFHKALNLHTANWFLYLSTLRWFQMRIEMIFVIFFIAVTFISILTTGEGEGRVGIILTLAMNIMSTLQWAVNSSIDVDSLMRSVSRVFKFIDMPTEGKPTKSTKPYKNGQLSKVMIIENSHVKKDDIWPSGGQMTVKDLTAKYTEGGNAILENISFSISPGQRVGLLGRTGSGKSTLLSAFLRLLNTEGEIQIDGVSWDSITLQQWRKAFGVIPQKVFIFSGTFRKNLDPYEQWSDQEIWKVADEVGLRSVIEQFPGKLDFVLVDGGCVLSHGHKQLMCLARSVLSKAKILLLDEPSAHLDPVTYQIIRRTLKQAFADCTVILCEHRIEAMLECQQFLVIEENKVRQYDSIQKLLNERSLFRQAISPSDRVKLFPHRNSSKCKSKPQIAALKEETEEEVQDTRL
T1 sequence (P13569 with tags, fused parts or gaps DEL508-508): as above

| SMILES | potentiation of CFTR protein delivered to the cell surface by Compound I alone or with Compound II (CFTR) | potentiation of F508del-CFTR delivered to the cell surface by Compound I alone or with Compound II (F508del-CFTR [1]) | safety and tolerability [2] | reproductive toxicology findings [3] | EC50 (F508del-CFTR [4]) [µM] | Emax (F508del-CFTR [4]; read-out: % Efficacy relative to Compound II) [%] | chloride transport (F508del-CFTR [1]) | effect on chloride transport in relation to the effect of Compound II (F508del-CFTR [1]) | steady-state levels, fold of untreated levels (F508del-CFTR [5]; F508del/F508del-HBE cells, 16 to 24 hours, 1 μM Compound I alone) [fold] | processing and trafficking of F508del-CFTR (F508del-CFTR [5]; in vitro) |
| --- | --- | --- | --- | --- | --- | --- | --- | --- | --- | --- |
| CC(C)(C)c1cc(C(C)(C)C)c(NC(=O)c2c[nH]c3ccccc3c2=O)cc1O [Compound III, N-(5-hydroxy-2,4-di-tert-butyl-phenyl)-4-oxo-1H-quinoline-3-carboxamide, reference compound] | potentiated | potentiated |  |  |  |  |  |  |  |  |
| C[C@@H]1CN(c2nc(-n3ccc(OCCC4(C(F)(F)F)CC4)n3)ccc2C(=O)NS(=O)(=O)c2ccccc2)C(C)(C)C1 [Compound I, N-(benzenesulfonyl)-6-[3-[2-[1-(trifluoromethyl)cyclopropyl]ethoxy]pyrazol-1-yl]-2-[(4(S))-2,2,4-trimethylpyrrolidin-1-yl]pyridine-3-carboxamide] |  |  | safe and well tolerated | no adverse findings of note | < 3 | ≥ 100 | enhanced chloride transport | additive to the effect of Compound II | 6.5 | improved the processing and trafficking of F508del-CFTR; also recorded: facilitates the processing and trafficking of F508del-CFTR |
